Source: patent US9981954B2, “2-(pyrazin-2-ylcarbonylaminomethyl) benzimidazolium compounds as epithelial sodium channel inhibitors” (Boehringer Ingelheim International GmbH, priority 2015, dated 2018)

Key:
[1] = target: T1, ENaC (Epithelial Sodium Channel), Mouse kidney M-1 cells (Mus musculus, UniProt Q61180+Q9WU38+Q9WU39); assay: Ussing Chamber assay: inhibition of amiloride sensitive short circuit current in M-1 cells; format: cell-based; details: apical application, 37° C.
T1 construct: Mouse kidney M-1 cells were cultivated in DMEM containing 5% FCS and 5 μM dexamethasone; endogenous in cells; host or cells: Mouse kidney M-1 cells (polarised on transwell filters, dexamethasone-treated)
T1 sequence (Q61180 1-699): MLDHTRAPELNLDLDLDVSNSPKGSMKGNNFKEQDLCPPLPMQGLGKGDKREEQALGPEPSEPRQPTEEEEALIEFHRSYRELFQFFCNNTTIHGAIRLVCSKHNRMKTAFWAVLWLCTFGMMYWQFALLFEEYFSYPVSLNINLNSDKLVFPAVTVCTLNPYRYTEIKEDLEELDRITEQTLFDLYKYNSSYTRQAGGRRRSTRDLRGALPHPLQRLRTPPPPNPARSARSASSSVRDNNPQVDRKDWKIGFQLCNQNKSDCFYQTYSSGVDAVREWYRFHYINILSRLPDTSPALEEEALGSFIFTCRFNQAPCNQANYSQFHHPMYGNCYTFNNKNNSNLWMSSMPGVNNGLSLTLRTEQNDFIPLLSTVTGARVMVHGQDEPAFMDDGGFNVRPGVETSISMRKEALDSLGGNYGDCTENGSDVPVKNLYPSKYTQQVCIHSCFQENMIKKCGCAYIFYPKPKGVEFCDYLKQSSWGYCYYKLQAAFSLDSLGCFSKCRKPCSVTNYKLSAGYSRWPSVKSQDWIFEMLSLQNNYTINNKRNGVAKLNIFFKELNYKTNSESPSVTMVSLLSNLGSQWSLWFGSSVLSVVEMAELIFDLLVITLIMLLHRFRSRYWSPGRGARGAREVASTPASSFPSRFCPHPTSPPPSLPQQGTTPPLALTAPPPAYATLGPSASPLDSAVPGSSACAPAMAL
T1 sequence (Q9WU38 1-638): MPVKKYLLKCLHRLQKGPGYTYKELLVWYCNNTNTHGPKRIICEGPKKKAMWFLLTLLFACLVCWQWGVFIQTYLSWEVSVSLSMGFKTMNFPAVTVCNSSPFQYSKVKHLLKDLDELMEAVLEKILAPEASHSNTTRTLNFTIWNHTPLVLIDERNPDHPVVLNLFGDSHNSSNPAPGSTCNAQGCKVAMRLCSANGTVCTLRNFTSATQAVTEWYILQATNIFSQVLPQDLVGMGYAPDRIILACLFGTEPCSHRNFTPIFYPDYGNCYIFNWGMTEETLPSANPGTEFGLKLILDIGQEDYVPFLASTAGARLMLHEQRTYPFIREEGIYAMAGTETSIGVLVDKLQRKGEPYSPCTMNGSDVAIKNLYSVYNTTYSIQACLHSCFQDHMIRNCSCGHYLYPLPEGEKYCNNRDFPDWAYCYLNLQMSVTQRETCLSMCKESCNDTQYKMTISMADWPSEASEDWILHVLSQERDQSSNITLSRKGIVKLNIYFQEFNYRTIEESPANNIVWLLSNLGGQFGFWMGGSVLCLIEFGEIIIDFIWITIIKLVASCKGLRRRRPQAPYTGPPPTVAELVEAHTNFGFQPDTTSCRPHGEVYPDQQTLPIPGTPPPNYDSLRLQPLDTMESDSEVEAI
T1 sequence (Q9WU39 1-655): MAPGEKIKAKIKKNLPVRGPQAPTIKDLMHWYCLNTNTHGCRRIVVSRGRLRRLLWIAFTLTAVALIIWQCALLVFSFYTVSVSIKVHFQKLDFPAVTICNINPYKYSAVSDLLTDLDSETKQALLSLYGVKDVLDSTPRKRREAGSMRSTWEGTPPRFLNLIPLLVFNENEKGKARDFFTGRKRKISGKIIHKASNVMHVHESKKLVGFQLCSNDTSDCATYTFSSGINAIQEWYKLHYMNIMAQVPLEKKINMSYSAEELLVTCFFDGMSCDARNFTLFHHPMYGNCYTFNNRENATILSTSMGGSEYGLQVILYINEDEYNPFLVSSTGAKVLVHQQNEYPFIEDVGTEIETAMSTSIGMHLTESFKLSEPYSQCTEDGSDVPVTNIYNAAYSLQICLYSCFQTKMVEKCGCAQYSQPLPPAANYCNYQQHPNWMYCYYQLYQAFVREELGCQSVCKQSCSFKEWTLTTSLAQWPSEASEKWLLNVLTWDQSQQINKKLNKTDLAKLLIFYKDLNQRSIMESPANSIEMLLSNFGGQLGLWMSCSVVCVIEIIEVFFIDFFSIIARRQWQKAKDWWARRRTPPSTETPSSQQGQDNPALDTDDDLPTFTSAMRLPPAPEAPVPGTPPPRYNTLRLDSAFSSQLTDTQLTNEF
Description: Ussing Chamber: Mouse kidney M-1 cells were cultivated in DMEM containing 5% FCS and 5 μM dexamethasone for 10 to 12 days on polyester transwell filters. Filters were inserted into a teflon-coated well-plate which fit into the ussing chamber system. Prior to measurement the medium of M-1 cells was replaced with Caco-2 transport buffer (Invitrogen, Germany). During measurements, the Ussing chamber temperature was kept at 37° C. Short circuit currents (I_sc) were measured in the voltage-clamp mode with the software package Lab View for data acquisition and analysis. The transepithelial electrical resistance (TEER) was determined by the application of voltage steps of ±5 mV every 5 sec. Compounds were administered at a final concentration of 3 μM or at increasing concentrations (1-3-10 μM) to the apical solution. At the end of each experiment the amiloride sensitive I_SC was measured by adding 3 μM amiloride to the apical compartment. Results are expressed as inhibition in percent of the amiloride effect or as IC50.

[2] = Permeability in CALU-3 cells; format: in vitro ADME; details: human, CALU-3 monolayers, pH 7.4, 37° C., 10 μM compound; for Papp A→B at 90 min, 10 μM: apical-to-basal; for Papp B→A at 90 min, 10 μM: basal-to-apical
Description: Permeability in CALU-3 Cells:
Permeability measurements across polarized, confluent CALU-3 cell monolayers grown on permeable filter supports are used to provide information on the potential of a compound to pass the lung epithelium.
CALU-3 cells (1-2×10^5 cells/l cm^2 area) are seeded on filter inserts (Costar transwell polycarbonate filters, 0.4 μm pore size) and cultured (for 10-12 days DMEM) until tight monolayers are formed. Compounds of interest are dissolved in appropriate solvent (DMSO, 10 mM stock solution). […] The transport solution (TL) is applied to the apical or basolateral donor side for measuring A-B or B-A permeability (3 filter replicates), respectively. The receiver side contains the same buffer as the donor side. After 30 min of accommodation, samples are collected at the start t0=0 min and at the end of the experiment tn=90 min from the donor and at 0, 30, 60, and 90 min also from the receiver chamber. Volume removed is […] by HTP-4 buffer. The compound concentration in the samples is measured by HPLC-MS/MS or scintillation counting. The permeability coefficient (Papp) and efflux ratio are calculated according to: Papp [cm/s]=(concentration receiver [nM]*volume receiver [mL]/time interval [sec])*(1/filter area)*(1/donor concentration [nM]).

| IC50 [1] | Papp A→B at 90 min, 10 μM [2] | Papp B→A at 90 min, 10 μM [2] | Structure (SMILES) |
| --- | --- | --- | --- |
| 3 nM | – | – | CC[n+]1c(CNC(=O)c2nc(Cl)c(N)nc2N)n(CCOCCOCCNC(=O)OC(C)(C)C)c2cc(OC)ccc21 [Example 1.01] |
| 2 nM | – | – | CC[n+]1c(CNC(=O)c2nc(Cl)c(N)nc2N)n(CC2(CO)COC2)c2cc(OC)ccc21 [Example 1.02] |
| 8 nM | 0.1 ×10⁻⁶ cm/s | 0.07 ×10⁻⁶ cm/s | CC[n+]1c(CNC(=O)c2nc(Cl)c(N)nc2N)n(CCCc2ccc(OCP(C)(C)=O)cc2)c2cc(OC)ccc21.O=C([O-])C(F)(F)F [Example 1.03] |
| 2 nM | – | – | COc1ccc2c(c1)n(CCF)c(CNC(=O)c1nc(Cl)c(N)nc1N)[n+]2CCOCCOCCO [Example 1.04] |
| 0.4 nM | – | – | C=CC[n+]1c(CNC(=O)c2nc(Cl)c(N)nc2N)n(CCOCCOCCO)c2ccc(OC)cc21 [Example 1.05] |
| 2 nM | – | – | COc1ccc2c(c1)[n+](CCF)c(CNC(=O)c1nc(Br)c(N)nc1N)n2CCOCCOCCO [Example 2.01] |
| 10 nM | – | – | CCn1c(CNC(=O)c2nc(Cl)c(N)nc2N)[n+](CC(=O)N(CCOC)CCOC)c2ccc(OC)cc21 [Example 3.01] |
| 5 nM | 0.06 ×10⁻⁶ cm/s | 0.2 ×10⁻⁶ cm/s | CCn1c(CNC(=O)c2nc(Cl)c(N)nc2N)[n+](CC(=O)N2CCOCC2)c2ccc(OC)cc21.[Br-] [Example 3.02] |
| 4 nM | – | – | CCNC(=O)C[n+]1c(CNC(=O)c2nc(Cl)c(N)nc2N)n(CC)c2cc(OC)ccc21 [Example 3.03] |
| 3 nM | – | – | CCn1c(CNC(=O)c2nc(Cl)c(N)nc2N)[n+](CC(=O)NCCOC)c2ccc(OC)cc21 [Example 3.04] |
| 12 nM | – | – | CCn1c(CNC(=O)c2nc(Cl)c(N)nc2N)[n+](CC(=O)N2CCN(C)CC2)c2ccc(OC)cc21 [Example 3.05] |
| 8 nM | 0.1 ×10⁻⁶ cm/s | 0.03 ×10⁻⁶ cm/s | CCn1c(CNC(=O)c2nc(Cl)c(N)nc2N)[n+](CC(=O)NCCN(C)C)c2ccc(OC)cc21.O=C(O)C(F)(F)F.O=C([O-])C(F)(F)F [Example 3.06] |
| 39 nM | – | – | CCn1c(CNC(=O)c2nc(Cl)c(N)nc2N)[n+](CC(=O)N(C)CCCN(C)C)c2ccc(OC)cc21 [Example 3.07] |
| 4 nM | 0.1 ×10⁻⁶ cm/s | 0.08 ×10⁻⁶ cm/s | CCn1c(CNC(=O)c2nc(Cl)c(N)nc2N)[n+](CC(=O)N2CCN(C(=O)OC(C)(C)C)CC2)c2ccc(OC)cc21.[Br-] [Example 3.08] |
| 33 nM | – | – | CCn1c(CNC(=O)c2nc(Cl)c(N)nc2N)[n+](CC(=O)N(C)CCN(C)C)c2ccc(OC)cc21 [Example 3.09] |
| 1 nM | – | – | CCn1c(CNC(=O)c2nc(Cl)c(N)nc2N)[n+](CC(N)=O)c2ccc(OC)cc21 [Example 3.10] |

| IC50 [1] | Papp A→B at 90 min, 10 μM [2] | Papp B→A at 90 min, 10 μM [2] | Structure (SMILES) |
| --- | --- | --- | --- |
| 110 nM | – | – | CCn1c(CNC(=O)c2nc(Cl)c(N)nc2N)[n+](CC(=O)N2CCC(N(C)C)CC2)c2ccc(OC)cc21 [Example 3.11] |
| 12 nM | 0.09 ×10⁻⁶ cm/s | 0.3 ×10⁻⁶ cm/s | CCn1c(CNC(=O)c2nc(Cl)c(N)nc2N)[n+](CC(=O)NC2CCN(C(=O)OC(C)(C)C)CC2)c2ccc(OC)cc21.[Br-] [Example 3.12] |
| 7 nM | 0.07 ×10⁻⁶ cm/s | 0.2 ×10⁻⁶ cm/s | CCn1c(CNC(=O)c2nc(Cl)c(N)nc2N)[n+](CC(=O)N(C)CCOC)c2ccc(OC)cc21.[Br-] [Example 3.13] |
| 2 nM | – | – | CCn1c(CNC(=O)c2nc(Cl)c(N)nc2N)[n+](CC(=O)NC)c2ccc(OC)cc21 [Example 3.14] |
| 20 nM | – | – | CCn1c(CNC(=O)c2nc(Cl)c(N)nc2N)[n+](CC(=O)N(CCO)CCO)c2ccc(OC)cc21 [Example 3.15] |
| 4 nM | – | – | CCn1c(CNC(=O)c2nc(Cl)c(N)nc2N)[n+](CC(=O)NCCCN(C)C(=O)OC(C)(C)C)c2ccc(OC)cc21 [Example 3.17] |
| 28 nM | – | – | CCn1c(CNC(=O)c2nc(Cl)c(N)nc2N)[n+](CC(=O)N2CCCN(C(=O)OC(C)(C)C)CC2)c2ccc(OC)cc21 [Example 3.21] |
| 1 nM | – | – | CCn1c(CNC(=O)c2nc(Cl)c(N)nc2N)[n+](CCCC(=O)NCCN(C)C)c2ccc(OC)cc21 [Example 4.01] |
| 4 nM | – | – | CC[n+]1c(CNC(=O)c2nc(Cl)c(N)nc2N)n(CCOCCOCCNC(=O)c2nc(Cl)c(N)nc2N)c2cc(OC)ccc21 [Example 5.01] |
| 47 nM | 0.3 ×10⁻⁶ cm/s | 0.2 ×10⁻⁶ cm/s | CCn1c(CNC(=O)c2nc(Cl)c(N)nc2N)[n+](CC(=O)N2CCNCC2)c2ccc(OC)cc21.Cl.[Cl-] [Example 6.01] |
| 4 nM | – | – | CC[n+]1c(CNC(=O)c2nc(Cl)c(N)nc2N)n(CCOCCOCCN)c2cc(OC)ccc21 [Example 6.02] |
| 17 nM | – | – | CCn1c(CNC(=O)c2nc(Cl)c(N)nc2N)[n+](CC(=O)NC2CCNCC2)c2ccc(OC)cc21 [Example 6.03] |
| 63 nM | – | – | CCn1c(CNC(=O)c2nc(Cl)c(N)nc2N)[n+](CC(=O)N2CCCNCC2)c2ccc(OC)cc21 [Example 6.04] |
| 1 nM | 0.07 ×10⁻⁶ cm/s | 0.2 ×10⁻⁶ cm/s | CC[n+]1c(CNC(=O)c2nc(Cl)c(N)nc2N)n(C2CCN(C(=O)NCCOC)CC2)c2ccccc21.O=C[O-] [Example 7.01] |
| 0.4 nM | – | – | CCn1c(CNC(=O)c2nc(Cl)c(N)nc2N)[n+](CCNS(C)(=O)=O)c2ccc(OC)cc21 [Example 9.01] |
| 2 nM | – | – | CC[n+]1c(CNC(=O)c2nc(Cl)c(N)nc2N)n(CC2(CCc3ccccc3)CCN(C(=O)NC3CCN(C)CC3)CC2)c2ccccc21 [Example 10.01] |
